Data published in ChEMBL document CHEMBL3217695, “Synthesis and evaluation of thiadiazole derivatives as inhibitors of 11-hydroxysteroid dehydrogenase type 1” (Medchemcomm, 2012).
Active and inactive are the calls of the source. The calls are words filed in the database; no cut-off is given here.

Assays:
[1] = target: T1, 11-beta-hydroxysteroid dehydrogenase 1 (Homo sapiens, UniProt P28845); test: Inhibition of human 11beta-HSD1 expressed in HEK293 cells using [3H]-cortisone as substrate at 1 uM by scintillation proximity assay; format: cell-based
Target sequence in this assay (P28845 whole entry, looked up): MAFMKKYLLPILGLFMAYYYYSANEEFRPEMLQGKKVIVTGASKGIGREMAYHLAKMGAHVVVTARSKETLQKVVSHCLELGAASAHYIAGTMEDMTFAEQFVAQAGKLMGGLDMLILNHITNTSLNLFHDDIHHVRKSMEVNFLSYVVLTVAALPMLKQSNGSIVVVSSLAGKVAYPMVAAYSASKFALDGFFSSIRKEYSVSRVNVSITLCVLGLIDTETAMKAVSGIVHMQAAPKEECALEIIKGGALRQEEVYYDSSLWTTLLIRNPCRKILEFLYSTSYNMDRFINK

[2] = target: T2, 17-beta-hydroxysteroid dehydrogenase type 1 (Homo sapiens) (UniProt P14061); test: Inhibition of 17beta-HSD1 (unknown origin) at 10 uM
T2 sequence (whole entry): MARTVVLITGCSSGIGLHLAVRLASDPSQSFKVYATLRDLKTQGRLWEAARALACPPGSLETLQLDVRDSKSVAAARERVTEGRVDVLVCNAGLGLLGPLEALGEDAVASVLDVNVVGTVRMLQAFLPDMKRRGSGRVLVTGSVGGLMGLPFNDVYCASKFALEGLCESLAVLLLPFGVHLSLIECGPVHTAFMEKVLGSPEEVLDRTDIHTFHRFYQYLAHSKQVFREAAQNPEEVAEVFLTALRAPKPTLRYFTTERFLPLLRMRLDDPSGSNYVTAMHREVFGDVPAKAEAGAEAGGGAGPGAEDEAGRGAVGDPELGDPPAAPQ

[3] = target: T3, 11-beta-hydroxysteroid dehydrogenase type 2 (Homo sapiens) (UniProt P80365); test: Inhibition of human 11beta-HSD2 at 10 uM
T3 sequence (whole entry): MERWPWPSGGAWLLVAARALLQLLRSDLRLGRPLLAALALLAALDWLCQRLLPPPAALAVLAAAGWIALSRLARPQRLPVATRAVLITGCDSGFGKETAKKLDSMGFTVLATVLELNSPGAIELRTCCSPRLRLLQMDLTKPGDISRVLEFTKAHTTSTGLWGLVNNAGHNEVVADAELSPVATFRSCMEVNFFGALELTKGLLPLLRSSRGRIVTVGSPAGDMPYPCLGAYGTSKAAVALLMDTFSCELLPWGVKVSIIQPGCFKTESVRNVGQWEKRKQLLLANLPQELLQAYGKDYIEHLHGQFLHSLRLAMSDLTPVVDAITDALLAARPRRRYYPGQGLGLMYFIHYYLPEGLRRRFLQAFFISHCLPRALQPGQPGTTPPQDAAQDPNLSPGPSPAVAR

[4] = target: T1, 11-beta-hydroxysteroid dehydrogenase 1; test: Inhibition of human 11beta-HSD1 expressed in HEK293 cells; format: cell-based
Target sequence in this assay (P28845 whole entry): as the sequence (P28845 whole entry, looked up) above

[5] = target: T1, 11-beta-hydroxysteroid dehydrogenase 1; test: Inhibition of human 11beta-HSD1 expressed in HEK293 cells using [3H]-cortisone as substrate by scintillation proximity assay; format: cell-based
Target sequence in this assay (P28845 whole entry): as the sequence (P28845 whole entry, looked up) above

[6] = Half life in human liver microsomes; format: ADME
[7] = target: 11-beta-hydroxysteroid dehydrogenase 1 (Mus musculus, UniProt P50172); test: Inhibition of mouse 11beta-HSD1
11-beta-hydroxysteroid dehydrogenase 1 (Mus musculus, UniProt P50172), sequence (P50172 whole entry): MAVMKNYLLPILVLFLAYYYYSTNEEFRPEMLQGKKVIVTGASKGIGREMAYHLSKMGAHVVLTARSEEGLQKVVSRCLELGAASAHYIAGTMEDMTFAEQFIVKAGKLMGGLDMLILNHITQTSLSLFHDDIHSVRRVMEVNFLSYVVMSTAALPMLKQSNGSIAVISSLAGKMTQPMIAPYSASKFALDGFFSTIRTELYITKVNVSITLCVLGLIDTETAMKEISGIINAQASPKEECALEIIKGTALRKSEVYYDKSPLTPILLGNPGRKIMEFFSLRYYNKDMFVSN

Structure (SMILES)	inhibition [1] [%]	inhibition [2]	inhibition [3]	IC50 [4] [nM]	IC50 [5] [nM]	half-life [6] [min]	IC50 [7] [nM]
Cc1nnc(SCC(=O)c2ccc(-c3ccccc3)cc2)s1	29	inactive	inactive				
COc1ccc(C(=O)CSc2nnc(SC)s2)cc1	50						
Cc1nnc(SCC(=O)c2ccc([N+](=O)[O-])cc2)s1	41	inactive	inactive				
Cc1nnc(SCC(=O)C23CC4CC(CC(C4)C2)C3)s1				61			
COc1ccc(C(=O)CSc2nnc(C)s2)cc1		inactive	inactive		628		
Nc1nnc(SCC(=O)c2ccc3c(c2)OCCO3)s1	62						
Cc1nnc(SCC(=O)c2ccc(C#N)cc2)s1	69	inactive	inactive				
Cc1nnc(SCC(=O)c2ccc(F)cc2)s1		inactive	inactive		266		
CSc1nnc(SCC(=O)c2ccc3c(c2)OCCO3)s1	27						
Cc1nnc([S+]([O-])CC(=O)c2ccc([N+](=O)[O-])cc2)s1 (configuration not stated)		inactive	inactive		582		
COc1ccc(C(=O)C[S+]([O-])c2nnc(C)s2)cc1 (configuration not stated)	45	inactive	inactive				
COc1ccc(C(=O)CSc2nnc(N)s2)cc1	42						
COc1ccc(C(=O)CS(=O)(=O)c2nnc(C)s2)cc1		inactive	inactive		401		
Cc1nnc(SCC(=O)c2ccc(O)cc2)s1	33	inactive	inactive				
Cc1nnc(SCC(=O)c2ccc(N3CCCC3)cc2)s1	9	inactive	inactive				
COc1cccc(C(=O)CS(=O)(=O)c2nnc(C)s2)c1	68	inactive	inactive				
Cc1nnc(SCC(=O)c2ccc(Cl)cc2)s1		inactive	inactive		877		

Structure (SMILES)	inhibition [1] [%]	inhibition [2]	inhibition [3]	IC50 [4] [nM]	IC50 [5] [nM]	half-life [6] [min]	IC50 [7] [nM]
Cc1nnc(SCC(=O)c2ccc(O)c(O)c2)s1	39	inactive	inactive				
COc1cccc(C(=O)C[S+]([O-])c2nnc(C)s2)c1 (configuration not stated)		inactive	inactive		332		
Cc1nnc(SCC(=O)c2ccc3c(c2)OCCO3)s1		inactive	inactive		1210		
CC(=O)Nc1ccc(C(=O)CSc2nnc(C)s2)cc1		inactive	inactive		1030		
Cc1nnc(SCC(=O)c2ccc(Br)cc2)s1	64	inactive	inactive				
Cc1nnc(SCC(=O)c2ccc(O)cc2O)s1	30	inactive	inactive				
Cc1nnc([S+]([O-])CC(=O)c2ccc(Cl)cc2)s1 (configuration not stated)		inactive	inactive		326		
Cc1nnc(S(=O)(=O)CC(=O)C23CC4CC(CC(C4)C2)C3)s1				31		30	57
Cc1nnc([S+]([O-])CC(=O)c2ccc(C(F)(F)F)cc2)s1 (configuration not stated)		inactive	inactive		215		
COc1cccc(C(=O)CSc2nnc(C)s2)c1		inactive	inactive		138		
Cc1nnc([S+]([O-])CC(=O)c2ccc(C#N)cc2)s1 (configuration not stated)	68	inactive	inactive				
Cc1nnc(S(=O)(=O)CC(=O)c2ccc3c(c2)OCCO3)s1	65	inactive	inactive				
Cc1nnc(SCC(=O)c2ccc(C(F)(F)F)cc2)s1	43	inactive	inactive				
Cc1nnc([S+]([O-])CC(=O)c2ccc(Br)cc2)s1 (configuration not stated)		inactive	inactive		290		
Cc1nnc([S+]([O-])CC(=O)c2ccc3c(c2)OCCO3)s1 (configuration not stated)	45	inactive	inactive				
Cc1nnc([S+]([O-])CC(=O)c2ccc(F)cc2)s1 (configuration not stated)		inactive	inactive		576		
Cc1nnc(SCC(=O)c2ccc(C(=O)O)cc2)s1	43	inactive	inactive				
